Tests used:
Experiment in all cases: Human Liver Microsomal CYP Inhibition Test
[1] = biological target: Cytochrome P450 2C19 (Homo sapiens, UniProt P33261)
Experimental: (§1) 3.5.1 the working solution preparation of the compound to be tested and the positive control (100×);3.5.2 Taking the liver microsomes from the −80° C. cryogenic freezer and melting on ice;3.5.3 Adding 20 μL of substrate solution to the appropriate wells and 20 μL of potassium phosphate buffer to the blank wells;3.5.4 Adding 2 μL of different concentrations of target compounds (final concentrations from 0.05 μM to 50 μM, 7 concentrations in total) or standard inhibitors to each well, with 2 μL of methanol solution in the non-inhibitor and blank wells;3.5.5 Adding 1.012 mL of liver microsomes to 78.988 mL of potassium phosphate buffer, then adding 158 μL of liver microsomes solution to all wells; preheating the well plate for 10 minutes in a 37° C. water bath;3.5.6 Weighing 129.1 mg NADPH (purchased from SyncoZymes Co. Ltd.) and adding to 15.0 mL of 33 Mm MgCl2 solution to give a 10 mM concentration, adding 20 μL to each well;3.5.7 Mixing and incubating the well plate in a 37° C. water bath for 10 minutes, then adding 400 μL of cold termination solution at the appropriate time point;3.5.8 Centrifuging the sample at 4000 rpm for 20 minutes to precipitate the protein. Transferring 200 μL of supernatant to 100 μL of HPLC water and shaking for 10 minutes. The samples were analyzed by LC/MS/MS.

[2] = biological target: T1, Cytochrome P450 1A2 (Homo sapiens, UniProt P05177)
T1 sequence (P05177 whole entry): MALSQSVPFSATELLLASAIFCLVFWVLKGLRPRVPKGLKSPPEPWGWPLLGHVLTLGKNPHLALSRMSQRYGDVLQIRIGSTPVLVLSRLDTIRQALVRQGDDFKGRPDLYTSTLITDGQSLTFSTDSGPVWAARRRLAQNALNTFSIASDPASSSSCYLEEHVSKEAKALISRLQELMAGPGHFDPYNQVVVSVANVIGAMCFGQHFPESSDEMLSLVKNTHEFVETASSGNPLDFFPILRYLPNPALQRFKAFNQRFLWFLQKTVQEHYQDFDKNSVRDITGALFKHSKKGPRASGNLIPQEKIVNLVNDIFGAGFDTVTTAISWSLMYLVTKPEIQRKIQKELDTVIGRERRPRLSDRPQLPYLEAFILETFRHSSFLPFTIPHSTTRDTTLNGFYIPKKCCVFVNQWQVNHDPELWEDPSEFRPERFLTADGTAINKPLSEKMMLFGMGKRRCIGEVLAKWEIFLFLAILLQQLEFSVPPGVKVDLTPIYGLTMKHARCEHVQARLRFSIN
Experimental: as §1

[3] = biological target: Cytochrome P450 2C9 (Homo sapiens, UniProt P11712)
Experimental: as §1

[4] = biological target: Cytochrome P450 2D6 (Homo sapiens, UniProt P10635)
Experimental: as §1

Sequence of Cytochrome P450 2C9 (P11712 whole entry): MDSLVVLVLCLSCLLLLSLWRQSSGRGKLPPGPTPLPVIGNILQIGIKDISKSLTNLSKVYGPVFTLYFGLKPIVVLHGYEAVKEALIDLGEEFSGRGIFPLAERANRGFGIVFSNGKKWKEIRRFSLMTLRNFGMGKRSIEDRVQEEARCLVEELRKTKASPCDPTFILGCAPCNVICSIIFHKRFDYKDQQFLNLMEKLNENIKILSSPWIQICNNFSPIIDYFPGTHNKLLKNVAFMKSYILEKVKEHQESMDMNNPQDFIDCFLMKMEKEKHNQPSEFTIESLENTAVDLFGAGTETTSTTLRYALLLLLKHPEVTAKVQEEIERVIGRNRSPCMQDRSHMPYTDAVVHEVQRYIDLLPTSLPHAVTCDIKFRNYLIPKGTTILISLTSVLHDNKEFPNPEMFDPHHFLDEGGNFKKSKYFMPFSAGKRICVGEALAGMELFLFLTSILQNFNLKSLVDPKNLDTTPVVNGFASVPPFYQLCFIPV
Sequence of Cytochrome P450 2C19 (P33261 whole entry): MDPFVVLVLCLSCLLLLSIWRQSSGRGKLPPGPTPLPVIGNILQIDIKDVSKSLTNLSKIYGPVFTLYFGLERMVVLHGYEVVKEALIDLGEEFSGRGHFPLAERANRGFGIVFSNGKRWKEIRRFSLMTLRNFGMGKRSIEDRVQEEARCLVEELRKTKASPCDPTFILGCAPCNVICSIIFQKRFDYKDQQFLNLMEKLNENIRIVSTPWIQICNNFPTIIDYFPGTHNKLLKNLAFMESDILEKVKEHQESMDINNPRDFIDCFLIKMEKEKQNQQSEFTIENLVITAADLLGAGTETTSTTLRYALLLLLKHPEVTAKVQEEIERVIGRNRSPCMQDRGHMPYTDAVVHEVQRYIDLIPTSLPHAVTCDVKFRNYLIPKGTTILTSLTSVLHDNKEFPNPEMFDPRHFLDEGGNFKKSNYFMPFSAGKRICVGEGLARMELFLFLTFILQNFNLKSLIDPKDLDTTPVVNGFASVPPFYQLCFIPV
Sequence of Cytochrome P450 2D6 (P10635 whole entry): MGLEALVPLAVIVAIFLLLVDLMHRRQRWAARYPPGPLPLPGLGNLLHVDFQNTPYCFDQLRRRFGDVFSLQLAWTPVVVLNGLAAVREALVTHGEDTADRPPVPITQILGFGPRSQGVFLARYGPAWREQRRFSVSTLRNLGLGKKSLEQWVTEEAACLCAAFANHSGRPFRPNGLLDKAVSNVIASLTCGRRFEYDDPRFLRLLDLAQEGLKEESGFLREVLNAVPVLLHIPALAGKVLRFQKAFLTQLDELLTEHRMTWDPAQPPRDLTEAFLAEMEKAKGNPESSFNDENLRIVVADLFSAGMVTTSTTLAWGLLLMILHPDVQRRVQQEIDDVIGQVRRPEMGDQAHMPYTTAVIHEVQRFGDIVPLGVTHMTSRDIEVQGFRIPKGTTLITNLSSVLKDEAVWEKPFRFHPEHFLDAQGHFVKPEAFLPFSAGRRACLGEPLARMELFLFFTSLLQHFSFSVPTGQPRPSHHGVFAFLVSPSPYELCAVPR

IC50 [1]: 2.13 µM
IC50 [2]: > 50 µM
IC50 [3]: > 50 µM
IC50 [4]: > 50 µM
SMILES: COc1c([C@H]2[C@H](C(=O)Nc3ccc[n+]([O-])c3)C[C@@](C)(C(F)(F)F)[C@H]2C)ccc(F)c1F [US20250296922, Compound 7]

From BindingDB's records for patent US20250296922 (Shanghai Wennai Therapeutics Co, 2025)
